The subject of one data set is HT-29. Kind of data set: CCK-8 cell viability assay, HT-29. Conditions: Homo sapiens, Figure 2A. The class given is cell-based. As for the experimental part:
(§1) Human cancer cell lines (PC3, DU145, A549, H1299, MDA-MB-231, HepG2, PANC-1, MIA PaCa-2, HT-29, HCT116, and HeLa) were obtained from the Cell Resource Center, Peking Union Medical College (National Infrastructure of Cell Line Resource, NSTI). These cell lines were cultured according to NSTI culture guidelines and cultured in RPMI 1640 medium (Biological Industries, Israel) supplemented with 10% heat-inactivated fetal bovine serum (FBS; BI; Israel), penicillin/streptomycin (P/S; 100 IU/ml; Gibco, 10378016) in an incubator at 37 °C and 5% CO2.
(§2) Cell cytotoxicity assays were performed in 96-well plates (NEST) to determine the growth kinetics of SeSA-DCA-treated cells using CCK-8 reagent (Shandong Sparkjade Biotechnology Co., Ltd., CT0001-B). Cells (5000 cells/well) were treated with DMSO or different drugs. Each treatment was performed in five replicates. To assess cell growth, 10 μL of CCK-8 reagent was introduced to every well and allowed to incubate for 4 h. Following that, the absorbance value for each well was measured at 450 nm. Every experiment was duplicated no less than thrice.
(Formazan colour is commonly taken as a measure of viable cells.)

A short description of data set [1]: Drug toxicity test: blood biochemistry in nude mice. The data set is classed as in vivo. Set-up: TBIL / BUN: unit not given here. Conditions: serum of nude mice; for ALT: dose (DCA 100, SAHA 20, SeSAHA 20, Docetaxel 10, SeSA-DCA 20 mg/kg); for ALT / ALP / AST: in U/L (unit assumed); for ALB / GLOB / TP: in g/L (unit assumed). As for the experimental part:
Blood samples from each mouse were kept at room temperature for 3 h and centrifuged at 8000 rpm for 15 min to produce serum. The samples were then placed on the blood routine detector for biochemical analysis.

In data set [2] the test system is PC3 cells. Kind of data set: CCK-8 cell viability assay, PC3. The conditions noted are these: Homo sapiens, PC-3, Figure 2B and text. The data set is classed as cell-based. As for the experimental part: as §1, §2
Data set [3] deals with PC3 cells. Kind of data set: RNA-sequencing and GSEA of treated PC3 cells. The data set is classed as cell-based, Human. The conditions noted are these: 48 h. As for the experimental part:
PC3 cells were seeded at a density of 5 × 10^6 cells/flask in two 75 cm^2 flasks. Treatment with drugs for 48 h was performed in one flask, whereas the other was used as a control. Total RNA was isolated using TRIZOL, and the total RNA was extracted from the sample with RNA extraction kit (Accurate Biotechnology (Hunan) Co., Ltd. ChangSha, China). DNA was digested with DNase (GenScript, E00053). Magnetic beads with Oligo (dT) were used to enrich eukaryotic mRNA, and cDNA library construction and sequencing were performed on the Illumina HiSeq Xten platform. After quality inspection, raw data (raw reads) were processed using Trimmomatic. Reads containing ploy-N and low-quality reads were removed to obtain clean reads. The clean reads were then mapped to the reference genome using HISAT2. The FPKM value of each gene was calculated using cufflinks, and the read counts of each gene were obtained by htseq-count. DEGs were identified using DESeq. […] Hierarchical cluster analysis of DEGs was performed to explore the gene expression patterns. KEGG pathway enrichment analysis and PPI and IPA analyses of the DEGs were performed.
GSEA was conducted using GSEA software.

In a further data set the test system is HDAC. Kind of data set: Inhibitory activity of SeSAHA compared with SAHA (data not shown). The conditions noted are these: preliminary results.
The mark [4] stands for this setting: versus DMSO, adjusted p-value < 0.05, |log2foldchange| > 1.

By IC50 is commonly meant the midpoint of a concentration-inhibition curve.

`O=C(CCCCCC[Se][Se]CCCCCCC(=O)Nc1cccc(COC(=O)C(Cl)Cl)c1)Nc1cccc(COC(=O)C(Cl)Cl)c1` showed an IC50 in the data set with HT-29 of 8.71 µM.

In data set [1], `O=C(O)C(Cl)Cl` [DCA, Dichloroacetate] gave an A/G of 0.36 ± 0.02, a BUN of 10.5 ± 0.88, a TBIL of 0.49 ± 0.06 and an ALT of 37.5 ± 4.5. In data set [1], this compound registered an ALP of 36.2 ± 3.6, an AST of 223.4 ± 35, an ALB of 13.45 ± 0.18 and a GLOB of 37.1 ± 0.22. The TP in data set [1] came to 51.5 ± 0.45. This compound showed a half-inhibitory concentration (IC50) in the data set on PC3 cells [2] of more than 18000 µM. Moreover, the “changes in gene expression compared with DMSO” value in the data set on PC3 cells [3] is “minimal changes”.

In data set [1], `CC(=O)O[C@@]12CO[C@@H]1C[C@H](O)[C@@]1(C)C(=O)[C@H](O)C3=C(C)[C@@H](OC(=O)[C@H](O)[C@@H](NC(=O)OC(C)(C)C)c4ccccc4)C[C@@](O)([C@@H](OC(=O)c4ccccc4)[C@H]21)C3(C)C` [Docetaxel, docetaxel] came in with an A/G of 0.38 ± 0.04, a BUN of 9.8 ± 0.8, a TBIL of 0.7 ± 0.07 and an ALT of 46.4 ± 5.7. In data set [1], this compound displayed an ALP of 34.2 ± 8.2, an AST of 251.8 ± 48.3, an ALB of 14.6 ± 0.6 and a GLOB of 38.3 ± 3.1. The compound further had a TP in data set [1] of 52.8 ± 4.1.

Turning to `O=C(CCCCCCC(=O)Nc1ccccc1)NO` [SAHA, suberoylanilide hydroxamic acid], in data set [1], the BUN is reported as 7.9 ± 1.5, the TBIL was determined as 0.8 ± 0.17, the ALT is 53.5 ± 5.5 and the ALP was 34.3 ± 3.3. In data set [1], the AST worked out at 285.3 ± 40.6, the ALB worked out at 15.8 ± 0.6, the GLOB was 35.9 ± 3.6 and the TP came to 51.7 ± 2.5. In addition, in the data set on PC3 cells [3] (setting [4]), the downregulated transcripts/genes is recorded as 1573 and the upregulated transcripts/genes is given as 2,024.

In data set [1], `O=C(CCCCCC[Se][Se]CCCCCCC(=O)Nc1cccc(CO)c1)Nc1cccc(CO)c1` [SeSAHA] had an A/G of 0.4 ± 0.07, a BUN of 6.7 ± 0.7, a TBIL of 0.6 ± 0.07 and an ALT of 49.3 ± 6.7. In data set [1], the ALP stood at 36.5 ± 4.3, the AST was 235.5 ± 40.3, the ALB was determined as 15.4 ± 2.1 and the GLOB is given as 38.4 ± 1.1. The same compound registered a TP in data set [1] of 53.7 ± 0.3. Further, in the data set with PC3 cells [2], the IC50 was more than 1.8 µM. For the same compound, in the data set on HDAC, the “inhibitory effect relative to SAHA” value is on record as “more than 10 fold”.
